Experimental data reported in ChEMBL document CHEMBL4406883, “Synthesis and structure-activity relationships of novel camphecene analogues as anti-influenza agents” (Bioorg Med Chem Lett, 2019).
The source made the active and inactive calls. No cut-off for these calls is given here.

Key:
[1] = test system: Influenza A virus (A/Puerto Rico/8/1934(H1N1)); assay type: functional, organism-based, pdm09
in vitro = conditions: dog, MDCK cells
Description: Selectivity index, ratio of CTD50 for dog MDCK cells to IC50 for Influenza A virus (A/Puerto Rico/8/34 (H1N1)) pdm09 infected in MDCK cells

[2] = Cytotoxicity against dog MDCK cells assessed as cell death incubated for 48 hrs by MTT assay; assay type: cell-based, Canis lupus familiaris; conditions: read-out: CTD50
[3] = test system: Influenza A virus (A/Puerto Rico/8/1934(H1N1)); assay type: functional, organism-based; conditions: pdm09, 300 umol/l
[4] = test system: Influenza A virus (A/Puerto Rico/8/1934(H1N1)); assay type: functional, organism-based; conditions: pdm09, 300 umol/l; remark: listed apart in the source
[5] = Influenza A virus, pdm09, MDCK, read-out: IC50

Row | Compound | IC50 [1, 5] | selectivity ratio (in vitro) | CC50 at 48 h [2] | IC50 [1] | inhibition [3] | inhibition [4]
1 | CCN1CCN(CC/N=C2\C[C@H]3CC[C@]2(C)C3(C)C)CC1 | 101 µM | 2 | 222 µM | – | – | –
2 | CC1(C)[C@@H]2CC[C@@]1(C)/C(=N/CCN1CCCCC1)C2 | 27 µM | 43 | > 1140 µM | – | – | –
3 | CC1(C)[C@@H]2CC[C@@]1(C)/C(=N/CCN1CCC(O)CC1)C2 | – | 1 | > 1030 µM | Not Active | – | –
4 | CC1(C)[C@@H]2CC[C@@]1(C)/C(=N/CCSc1ccccn1)C2 | 6 µM | 91 | 503 µM | – | – | –
5 | CC1(C)[C@@H]2CC[C@@]1(C)/C(=N/CCSc1nc3ccccc3s1)C2 | 19 µM | 20 | 383 µM | – | – | –
6 | CC1(C)[C@@H]2CC[C@@]1(C)/C(=N/CCSc1nc3ccccc3[nH]1)C2 | 21 µM | 20 | 406 µM | – | – | –
7 | CC1(C)[C@@H]2CC[C@@]1(C)/C(=N/CCN1CCCC1)C2 | 12 µM | 106 | > 1260 µM | – | – | –
8 | CC1(C)[C@@H]2CC[C@@]1(C)/C(=N/CCN1CCNCC1)C2 | 37 µM | 33 | 1200 µM | – | – | –
9 | Cn1ccnc1SCC/N=C1\C[C@H]2CC[C@]1(C)C2(C)C | 341 µM | 3 | 1130 µM | – | – | –
10 | CN1CCN(CC/N=C2\C[C@H]3CC[C@]2(C)C3(C)C)CC1 | 45 µM | 24 | 1080 µM | – | – | –
11 | CC1(C)[C@@H]2CC[C@@]1(C)/C(=N/CCSc1nnc[nH]1)C2 | 24 µM | 8 | 197 µM | – | – | –
12 | NC(=O)c1ncn([C@@H]2O[C@H](CO)[C@@H](O)[C@H]2O)n1 [RIBAVIRIN] | 25 µM | > 81 | > 2000 µM | – | – | –
13 | NC12CC3CC(CC(C3)C1)C2 [AMANTADINE] | 64 µM | 4 | – | – | – | –
14 | CC(N)C12CC3CC(CC(C3)C1)C2 (stereo unspecified) [RIMANTADINE] | 67 µM | 5 | – | – | – | –
15 | CC1CCN(CC/N=C2\C[C@H]3CC[C@]2(C)C3(C)C)CC1 | 25 µM | 12 | 294 µM | – | – | –
16 | CC1(C)[C@@H]2CC[C@@]1(C)/C(=N/CCO)C2 | 5000 µM | 500 | – | – | – | –
17 | CC1(C)[C@@H]2CC[C@@]1(C)/C(=N/CCSc1ncccn1)C2 | 6 µM | 183 | > 1020 µM | – | Active | inactive
18 | CC1(C)[C@@H]2CC[C@@]1(C)/C(=N/CCSC1=NCCS1)C2 | 33 µM | 23 | 753 µM | – | – | –
19 | CC1(C)[C@@H]2CC[C@@]1(C)/C(=N/CCSc1ccc(Cl)cc1)C2 | 47 µM | 4 | 170 µM | – | – | –
